This is an account of results in PubChem BioAssay (NCI).

Among the test systems are A498 renal; HCT-116 colon; HOP-92 NSCLC; HT29 colon; MALME-3M melanoma; MCF7 breast; NCI-H23 lung; OVCAR-3 ovarian; OVCAR-8 ovarian; K-562 leukemia.
Holding throughout (test): NCI anticancer screen, dose series, 48 h

Several values for one entry are separate records, joined by “and”; a condition that tells them apart may be missing. Equal values may be shown once.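 Compound exposure: 48 hours, 5 concentrations, 96-well plates. At the GI50, growth is halved. The concentration for full growth arrest is given as TGI.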 Some results are limits rather than exact numbers.

With `CC#CC(=O)N1CC[C@@H](n2c(=O)n(-c3ccc(Oc4ccccc4)cc3)c3c(N)ncnc32)C1`, the GI50 with A498 renal is 6.38 µM; with HCT-116 colon it was 24.8 µM; with HOP-92 NSCLC it was 16.4 µM; in the test on HT29 colon, 34.7 µM; with MALME-3M melanoma it was 18 µM; in the test on MCF7 breast it was 23.5 µM. Also, the GI50 with NCI-H23 lung was 36.8 µM; with OVCAR-3 ovarian, 25.7 µM; in the test on OVCAR-8 ovarian, 40.6 µM. Also, the TGI in the test with A498 renal is 44.6 µM; in the test on HCT-116 colon it was 98.4 µM; in the test on HOP-92 NSCLC it was 68.1 µM; with HT29 colon it was over 100 µM; with MALME-3M melanoma, over 100 µM; in the test with MCF7 breast, over 100 µM. Also, the TGI in the test with NCI-H23 lung, with OVCAR-3 ovarian and with OVCAR-8 ovarian was over 100 µM each time.

For `Cn1c(=N)n[n+]([O-])c2ccccc21`, the GI50 in the test with A498 renal is 3.07 µM and 9.29 µM; with NCI-H23 lung, 2.44 µM. Besides, the TGI is 9.7 µM and 23.2 µM in the test with A498 renal; over 100 µM with HCT-116 colon; 90.9 µM with HOP-92 NSCLC; 4.88 µM and 15.1 µM in the test on HT29 colon; 10.8 µM and 5.45 µM in the test on K-562 leukemia; 6.15 µM in the test on MALME-3M melanoma. Besides, the TGI is 5.32 µM in the test with MCF7 breast; 4.4 µM and 6.39 µM in the test with NCI-H23 lung; 31.6 µM and > 55.3 µM in the test on OVCAR-8 ovarian.

With `CC(C)(C)c1cc(-c2nc3c(F)c(F)c(F)c(F)c3[nH]2)cc(C(C)(C)C)c1O`, the GI50 in the test with A498 renal, in the test on HCT-116 colon, in the test with HOP-92 NSCLC, with HT29 colon, in the test with K-562 leukemia and in the test with MALME-3M melanoma was over 100 µM in each case. The GI50 with MCF7 breast, in the test with OVCAR-3 ovarian and in the test on OVCAR-8 ovarian was over 100 µM throughout. Further, the TGI with A498 renal, in the test on HCT-116 colon, with HOP-92 NSCLC, in the test on HT29 colon, in the test on K-562 leukemia and with MALME-3M melanoma was over 100 µM throughout. Also, the TGI in the test on MCF7 breast, with OVCAR-3 ovarian and in the test on OVCAR-8 ovarian was over 100 µM each time.

In the case of `COc1ccc2c(c1)C(=O)c1c-2c(NCCN(C)C)nc2ccccc12`, the GI50 in the test on A498 renal was 11.3 µM; with HCT-116 colon, 15.1 µM; in the test on HOP-92 NSCLC, 0.0658 µM; in the test on HT29 colon it was 4.41 µM; in the test with K-562 leukemia, 2.62 µM; in the test with MALME-3M melanoma, 12.4 µM. Moreover, the GI50 in the test on MCF7 breast is 2 µM; in the test on OVCAR-3 ovarian, 2.29 µM; with OVCAR-8 ovarian, 0.496 µM. The TGI in the test on A498 renal came to 24.6 µM; in the test on HCT-116 colon it was 28.3 µM; in the test with HOP-92 NSCLC it was 6.54 µM; in the test on HT29 colon, 15.5 µM; in the test with K-562 leukemia, 14.8 µM; in the test with MALME-3M melanoma it was 32.7 µM. Further, the values for the TGI in the test on MCF7 breast, with OVCAR-3 ovarian and in the test with OVCAR-8 ovarian were 12.2 µM, 9.34 µM and 5.53 µM, respectively.

Take `CC(CN)[C@@H]1CC[C@]2(CO)CC[C@]3(C)[C@H](CC[C@@H]4[C@@]5(C)CCC(N)C(C)(C)[C@@H]5CC[C@]43C)[C@@H]12` (stereo partly specified): the GI50 in the test on A498 renal was 1.84 µM; in the test on HCT-116 colon, 1.68 µM; with HOP-92 NSCLC, 1.45 µM; in the test with HT29 colon it was 1.57 µM; in the test on MALME-3M melanoma, 1.54 µM; in the test on MCF7 breast, 1.57 µM. Further, the GI50 in the test on NCI-H23 lung was 1.85 µM; in the test with OVCAR-3 ovarian it was 1.71 µM; in the test on OVCAR-8 ovarian it was 1.92 µM. For the same compound, the TGI in the test with A498 renal was 3.31 µM; with HCT-116 colon it was 3.59 µM; in the test with HOP-92 NSCLC, 3.07 µM; in the test on HT29 colon, 3.03 µM; in the test on MALME-3M melanoma, 3.29 µM; with MCF7 breast it was 3.52 µM. The TGI in the test with NCI-H23 lung was determined as 3.7 µM; in the test on OVCAR-3 ovarian, 3.24 µM; in the test on OVCAR-8 ovarian it was 3.36 µM.

As to `Cc1c(-c2nnc(-c3cc(Cl)c(Cl)cc3Cl)o2)nnn1-c1ccnc2c(C(F)(F)F)cccc12`, the GI50 is 30.3 µM in the test with A498 renal; 17.9 µM in the test with HCT-116 colon; 14.4 µM in the test with HOP-92 NSCLC; 22.3 µM in the test on HT29 colon; 33.1 µM in the test with K-562 leukemia; 19.2 µM with MALME-3M melanoma. Further, the GI50 in the test on MCF7 breast is 20.3 µM; with NCI-H23 lung it was 26.5 µM; in the test with OVCAR-3 ovarian it was 27.5 µM. Also, the TGI was 76.3 µM in the test with A498 renal; 34.8 µM with HCT-116 colon; 32.2 µM in the test with HOP-92 NSCLC; 42.2 µM in the test on HT29 colon; over 100 µM in the test on K-562 leukemia; 51.1 µM in the test on MALME-3M melanoma. Also, the results for the TGI with MCF7 breast, in the test on NCI-H23 lung and in the test with OVCAR-3 ovarian were 45.1 µM, 81.1 µM and 82.7 µM, respectively.
